In patent EP1061897B1, “GLYCYLGLYCINE OLEAMIDE IN DERMO-COSMETOLOGY” (Pierre Fabre Dermo-Cosmetique, priority 1998, dated 1999):
Residues, ends and D or L forms follow the SMILES beside them. *: point of attachment. Oleoyl = CCCCCCCC/C=C\CCCCCCCC(=O)*

What was measured:
collagène de type I = assay: in vitro acellular glycation of type I collagen, thiobarbituric acid assay; type: biochemical; conditions: glucose 250 mM, 37°C, 8 days, figure 1
Method: L'activité inhibitrice de la glycylglycine est évaluée et comparée à celle de l'aminoguanidine en utilisant un modèle in vitro, acellulaire, de glycation du collagène de type I, selon le protocole suivant.
L'actif anti-glyquant est introduit dans une solution contenant du glucose 250 mM et du collagène de type I. L'aminoguanidine agit notamment en bloquant le groupement carbonyle du produit d'Amadori, stoppant ainsi la glycation à son stade précoce (M. Brownlee et coll., Science, 1986 (6), 232, 1629-1632).
Le mélange est incubé à 37°C pendant 8 jours puis le glucose non fixé est éliminé par dialyse. Après lyophilisation du collagène, on procède à un dosage à l'acide thiobarbiturique pour déterminer le taux de glycation.
Cette méthode permet le dosage de sucres liés aux cétoamines.
Le lyophilisat, après être pesé, est dissous dans l'acide oxalique 0,5 M. On laisse incuber à 120°C pendant 1 heure, puis à 40°C pendant 45 min après avoir ajouté de l'acide thiobarbiturique à 50 mM.
La densité optique du mélange, lue à 443 nm, est proportionnelle au taux de glycation exprimé en nmoles HMF formé par mg de lyophilisat.

fibroblastes = assay: Bell-type dermal equivalent, contraction kinetics of fibroblast-seeded collagen lattice; type: cell-based; conditions: followed over 7 days; 0,005 % oléamide de glycylglycine, 0,003 % acide oléique, 0,002 % gly-gly; figure 3
Description: Pour objectiver cette activité, on utilise le modèle cellulaire de derme équivalent de type Bell. Il permet, grâce à une mise en culture de fibroblastes sur un support de collagène, de reproduire in vitro une structure tissulaire tridimensionnelle et de rendre compte des interactions fibroblaste-matrice, le fibroblaste étant impliqué dans le maintien de la structure dermique.
La capacité des fibroblastes, ensemencés dans un milieu défini avec ou sans actif, à organiser les fibres de collagène les unes par rapport aux autres et de les faire se rétracter, se concrétise par une diminution de surface de ce derme. Ce test traduit la capacité du fibroblaste à modeler, par ce biais, un véritable tissu. On suit donc la cinétique de contraction de ce derme sur 7 jours, cette cinétique étant liée au métabolisme de la cellule.
Les concentrations en actifs employées correspondent à des doses auxquelles ces actifs se sont avérés non cytotoxiques et non prolifératifs.

élastase = assay: in vitro acellular anti-elastase test, elastase diffusion in agarose gel containing orcein-stained insoluble elastin; type: biochemical; conditions: figure 2
Description: La méthode utilisée est une technique in vitro acellulaire, basée sur la diffusion d'élastase dans un gel d'agarose contenant de l'élastine insoluble colorée par l'orcéïne et dispersée dans le gel avec ou sans principe actif. La lecture du diamètre de lyse permet de calculer le pourcentage d'inhibition de l'enzyme par le principe actif.

Row | Compound | activité anti-glyquante (taux de glycation, nmoles HMF/mg) (collagène de type I; at 100 mM, compared with aminoguanidine) | activité anti-glyquante (taux de glycation, nmoles HMF/mg) (collagène de type I; 1 mM, 10 mM and 100 mM) | cinétique de rétraction (pourcentage de rétraction) (fibroblastes) | activité anti-élastase (aire de lyse) (élastase)
1 | NCC(=O)NCC(=O)O [glycylglycine] (H-Gly-Gly-OH) | activité équivalent à celle de l'aminoguanidine | avec un effet-dose |  | 
2 | CCCCCCCC/C=C\CCCCCCCC(=O)NCC(=O)NCC(=O)O [oléamide de glycylglycine] (Oleoyl-Gly-Gly-OH) |  |  | plus efficace que l'acide oléique, l'association acide oléique/glycylglycine, la glycylglycine | activité anti-élastase importante
